The source of these data is PubChem BioAssay (NCI).

Some test systems named below: A498 renal; CCRF-CEM leukemia; COLO 205 colon; MCF7 breast; PC-3 prostate; UO-31 renal; HS 578T breast; LOX IMVI melanoma.
Experiment in all cases: NCI anticancer screen, dose series, 48 h

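Compound exposure: 48 hours, 5 concentrations, 96-well plates. GI50: concentration for 50% inhibition of growth. TGI denotes the concentration required for complete inhibition of growth.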

Consider `Cc1cc(Cl)ccc1C(=O)c1ccc2ccccc2c1C(=O)O`, for which the TGI in the experiment on A498 renal, in the experiment on CCRF-CEM leukemia, with COLO 205 colon, with MCF7 breast, in the experiment on PC-3 prostate and in the experiment with UO-31 renal was more than 100 µM throughout.

As for `CN(C)c1cccc(F)c1C(=O)NC(=O)Nc1ccc(Cl)cc1`, the TGI in the experiment on A498 renal is more than 74.8 µM; in the experiment on COLO 205 colon, more than 100 µM; in the experiment on HS 578T breast it was more than 22.3 µM; in the experiment with LOX IMVI melanoma, more than 100 µM; in the experiment on MCF7 breast, more than 100 µM; in the experiment with PC-3 prostate, more than 100 µM. In the experiment with UO-31 renal, this molecule registered a TGI of more than 100 µM.

With `O=C1c2cccnc2C(=O)c2c1c(C(=O)OCCCN1CCCCC1)c1ccccn21`, the GI50 is 0.0706 µM with CCRF-CEM leukemia; less than 0.0128 µM in the experiment with COLO 205 colon; less than 0.0178 µM with HS 578T breast; less than 0.01 µM in the experiment on LOX IMVI melanoma; less than 0.01 µM in the experiment with MCF7 breast; less than 0.0183 µM with PC-3 prostate. For the same molecule, the GI50 in the experiment with UO-31 renal is less than 0.01 µM. Further, the TGI was 0.0303 µM with COLO 205 colon; 0.132 µM in the experiment on HS 578T breast; less than 0.01 µM in the experiment on LOX IMVI melanoma; less than 0.015 µM in the experiment on MCF7 breast; 0.389 µM with PC-3 prostate; less than 0.01 µM with UO-31 renal.

As for `CCCCOC1OC(COC(=O)C(C)C)C(OC(=O)C(C)C)C(O)C1OC1OC(C)C(OC(=O)CCC)C(OC(=O)C(C)C)C1O` (configuration not stated), the GI50 in the experiment with CCRF-CEM leukemia is 10.8 µM; with COLO 205 colon, 13.1 µM; in the experiment on HS 578T breast, 20.7 µM; in the experiment on LOX IMVI melanoma it was 13.3 µM; in the experiment on MCF7 breast, 8.4 µM; in the experiment with PC-3 prostate it was 8.35 µM. Further, in the experiment on UO-31 renal, the GI50 was 16.8 µM. For the same molecule, the TGI stood at 24.1 µM in the experiment with CCRF-CEM leukemia; 25.8 µM with COLO 205 colon; 39.7 µM with HS 578T breast; 26.1 µM in the experiment on LOX IMVI melanoma; 61.6 µM with MCF7 breast; 20.7 µM in the experiment with PC-3 prostate. The molecule further returned a TGI with UO-31 renal of 32.2 µM.

Consider `COc1ccc(-c2csc(NC(=O)CN3CCN(c4cc5c(cc4F)c(=O)c(C(=O)O)cn5C4CC4)CC3)n2)cc1`, for which the GI50 in the experiment with CCRF-CEM leukemia is 3.59 µM; in the experiment with HS 578T breast, 9.82 µM; with MCF7 breast, 2.84 µM; with PC-3 prostate it was 3.82 µM; in the experiment with UO-31 renal, 3.37 µM. The TGI in the experiment with CCRF-CEM leukemia, in the experiment with HS 578T breast, with MCF7 breast, in the experiment with PC-3 prostate and with UO-31 renal was more than 100 µM each time.

`CC(C)(C)OC(=O)NCc1cccc(N=C=S)c1`: the GI50 with CCRF-CEM leukemia is 21 µM; with COLO 205 colon it was 15.7 µM; in the experiment with HS 578T breast, 24.6 µM; with LOX IMVI melanoma it was 16.7 µM; in the experiment with MCF7 breast, 16.6 µM; in the experiment on PC-3 prostate it was 21.5 µM. Also, the GI50 in the experiment with UO-31 renal was 15.4 µM. In addition, the TGI in the experiment with CCRF-CEM leukemia was 55.9 µM; in the experiment on COLO 205 colon it was 33.9 µM; with HS 578T breast it was more than 84.8 µM; in the experiment on LOX IMVI melanoma it was 31.9 µM; with MCF7 breast it was 42.4 µM; with PC-3 prostate, 51.8 µM. This molecule also registered a TGI with UO-31 renal of 38.8 µM.

As to `COc1cc(C)c2sc3ccccc3c(=O)c2c1NCCN(C)C`, the GI50 with A498 renal was 8.83 µM; in the experiment on COLO 205 colon, 1.86 µM; in the experiment with LOX IMVI melanoma, 3.66 µM; in the experiment on MCF7 breast it was 2.4 µM; with PC-3 prostate, 4.28 µM; in the experiment with UO-31 renal, 3.46 µM. Further, the TGI with A498 renal amounted to 22.1 µM; with COLO 205 colon it was 3.51 µM; in the experiment with LOX IMVI melanoma, 13.1 µM; with MCF7 breast it was 10.2 µM; in the experiment with PC-3 prostate, 17.4 µM; with UO-31 renal it was 16.1 µM.

Regarding `O=[N+]([O-])c1cc2no[n+]([O-])c2cc1N1CCCCC1`, the TGI is 35.2 µM in the experiment with A498 renal; more than 100 µM with CCRF-CEM leukemia; 30.4 µM in the experiment with COLO 205 colon; 72.5 µM with HS 578T breast; 4.81 µM in the experiment on LOX IMVI melanoma; 5.68 µM in the experiment on PC-3 prostate. Further, the TGI in the experiment on UO-31 renal stood at 6.16 µM.

Consider `O=Cc1ccc(-c2ccc(-c3nc4ccccc4s3)cc2)s1`, for which the GI50 with A498 renal is more than 100 µM; in the experiment with CCRF-CEM leukemia, 26.5 µM; in the experiment on COLO 205 colon, more than 100 µM; in the experiment with LOX IMVI melanoma, 68.1 µM; in the experiment on MCF7 breast, 48.1 µM; in the experiment with PC-3 prostate, 28.7 µM. In addition, the GI50 in the experiment with UO-31 renal is 42.7 µM. Moreover, the TGI is more than 100 µM with A498 renal; 90.7 µM with CCRF-CEM leukemia; more than 100 µM in the experiment with COLO 205 colon; more than 100 µM in the experiment on LOX IMVI melanoma; more than 100 µM in the experiment on MCF7 breast; more than 100 µM in the experiment with PC-3 prostate. Further, the TGI with UO-31 renal was more than 100 µM.

With `COC(=O)Cc1cc(=O)[nH]c2c1C(=O)CCC2`, the TGI with CCRF-CEM leukemia and with UO-31 renal was more than 100 µM each time.

As to `Cl.Fc1c[c-]c(-c2ccccn2)c(F)c1.[Pt].c1ccc([PH+](C[PH+](c2ccccc2)c2ccccc2)c2ccccc2)cc1`, the GI50 in the experiment on A498 renal is 0.239 µM; in the experiment on HS 578T breast, 0.312 µM; in the experiment with MCF7 breast, 0.198 µM; in the experiment on PC-3 prostate, 0.276 µM. The TGI was found to be 0.721 µM with A498 renal, 1.56 µM in the experiment with HS 578T breast, 1.12 µM in the experiment with MCF7 breast and 1.14 µM with PC-3 prostate.
